Experimental data as given in the Biogen ADME set (Fang et al. 2023).
≈ marks a conversion by molar mass, not a printed value.

Details: for aqueous solubility: pH 6.8

| SMILES | MDR1-MDCK efflux ratio | intrinsic clearance, human liver microsomes | intrinsic clearance, rat liver microsomes | aqueous solubility | fraction unbound, human plasma | fraction unbound, rat plasma |
| --- | --- | --- | --- | --- | --- | --- |
| COc1cc2c(cc1OC)CC(=O)N(CCCN(C)C[C@H]1Cc3cc(OC)c(OC)cc31)CC2 | 73.8 | 36.7 mL/min/kg | 163 mL/min/kg | 65.8 µg/mL (≈ 140 µM) | 0.538 | 0.412 |
| Cc1nccc(N(C)Cc2nc(-c3cccnc3)no2)n1 | 0.87 | 8.62 mL/min/kg | 200 mL/min/kg | – | – | – |
| Cc1cc(C(F)(F)F)nc(CCNC(=O)N(C)Cc2c(C)noc2C)n1 | 16.4 | 172 mL/min/kg | 578 mL/min/kg | – | – | – |
| O=C1Oc2nc3cc4c(cc3cc2CN1CCN1CCOCC1)OCO4 | 2.42 | 5.18 mL/min/kg | 28.8 mL/min/kg | 9.6 µg/mL (≈ 26.9 µM) | – | – |
| CS(=O)(=O)CCN1CCC(n2c(=O)[nH]c3ccccc32)CC1 | – | ≤ 4.74 mL/min/kg | ≤ 10.7 mL/min/kg | 62.9 µg/mL (≈ 194 µM) | – | – |
| CC(C)N1CCC(O)(c2ccccc2F)CC1 | 0.537 | ≤ 4.74 mL/min/kg | 362 mL/min/kg | 41.5 µg/mL (≈ 175 µM) | – | – |
| COc1cc2c(cc1OC)[C@@H]1Cc3ccc(OC)c(OC)c3CN1CC2 | 0.542 | 5.78 mL/min/kg | 85.5 mL/min/kg | – | – | – |
| CC(C)c1nc(/C=C/c2cnn(C)c2)ncc1C(=O)O | – | ≤ 4.74 mL/min/kg | ≤ 10.7 mL/min/kg | – | – | – |
| NC(=O)c1noc([C@@H](CCCC2CCCCC2)CC(=O)NO)n1 | – | 7.31 mL/min/kg | – | – | – | – |
| Cc1cccc(N2CCN(C(=O)c3cncnc3C(C)C)CC2)c1 | 0.882 | 144 mL/min/kg | 1500 mL/min/kg | 73.9 µg/mL (≈ 228 µM) | – | – |
| Fc1ccc(-n2nc(C3CCOCC3)nc2-c2cn[nH]c2)c(F)c1 | 19.6 | ≤ 4.74 mL/min/kg | 62.7 mL/min/kg | 25.9 µg/mL (≈ 78.1 µM) | – | – |
| C[C@H]1CN(Cc2c(Cl)cccc2C(F)(F)F)C[C@@]1(CC(=O)O)C(=O)NC1CCN(CC2=CCCCC2)CC1 | 80.8 | – | – | – | – | – |
| O=C1Nc2ccc(Cl)cc2[C@@](C#CC2CC2)(C(F)(F)F)O1 | – | – | – | 15.3 µg/mL (≈ 48.4 µM) | – | – |
| CC(C)(C)c1csc(NC(=O)C2CC2)n1 | 0.634 | 20.2 mL/min/kg | 89 mL/min/kg | 29.2 µg/mL (≈ 130 µM) | – | – |
| CS(=O)(=O)NC1CCN(C(=O)NCCc2ccc(F)cc2)CC1 | 35.3 | ≤ 4.74 mL/min/kg | 61.4 mL/min/kg | 67.9 µg/mL (≈ 198 µM) | – | – |
| CC(C)CCn1ccc(NC2CCN(C(C)C)CC2)n1 | 3.58 | ≤ 4.74 mL/min/kg | 152 mL/min/kg | – | – | – |
| Cc1cnc(NC(=O)Cc2coc3cc(C)c(C)cc23)s1 | – | – | – | 0.32 µg/mL (≈ 1.07 µM) | – | – |

Next, values leading:

| MDR1-MDCK efflux ratio | intrinsic clearance, human liver microsomes | intrinsic clearance, rat liver microsomes | aqueous solubility | fraction unbound, human plasma | fraction unbound, rat plasma | SMILES |
| --- | --- | --- | --- | --- | --- | --- |
| 0.796 | 120 mL/min/kg | 967 mL/min/kg | 30.5 µg/mL (≈ 76.9 µM) | – | – | O=C(CN1CCCN(c2ccc(C(F)(F)F)cn2)CC1)Nc1cccc(F)c1 |
| 15.1 | 183 mL/min/kg | 2180 mL/min/kg | 56.5 µg/mL (≈ 144 µM) | – | – | CC(C(=O)Nc1ccc(C(N)=O)cc1)N1CCCC(c2nc3ccccc3o2)C1 (configuration not stated) |
| 36.9 | 21.1 mL/min/kg | 70 mL/min/kg | 52.5 µg/mL (≈ 135 µM) | – | – | Cc1ccc2nc(C)c(C(=O)N3CCC(C(=O)Nc4ccncc4)CC3)cc2c1 |
| 0.519 | 179 mL/min/kg | 1150 mL/min/kg | 2.69 µg/mL (≈ 11.1 µM) | – | – | N#Cc1cccnc1NCCc1ccc(F)cc1 |
| 7.22 | 448 mL/min/kg | 4750 mL/min/kg | – | – | – | CC(C)CN(Cc1cnn(C)c1)C(=O)c1cccc(-c2cnccn2)c1 |
| – | 76.4 mL/min/kg | 1010 mL/min/kg | – | – | – | Cc1cc(CSCc2ccc(C#N)cc2)no1 |
| 35.9 | 535 mL/min/kg | 1140 mL/min/kg | 35.8 µg/mL (≈ 53.7 µM) | 0.0189 | 0.0133 | CC(C)(C=C(C#N)C(=O)N1CCC[C@@H](n2nc(-c3ccc(Oc4ccccc4)cc3F)c3c(N)ncnc32)C1)N1CCN(C2COC2)CC1 |
| 1.93 | 380 mL/min/kg | 1510 mL/min/kg | 25.1 µg/mL (≈ 58.9 µM) | 0.00903 | 0.0137 | Nc1ncc(-c2cccc(C(F)(F)F)c2)c(C2CCCCN2C(=O)c2ccccc2)n1 (configuration not stated) |
| 4.26 | – | – | 0.8 µg/mL (≈ 1.95 µM) | – | – | O=C(CCOc1ccccc1)N1CCCC(c2n[nH]cc2-c2ccc(Cl)cc2)C1 (configuration not stated) |
| 6.74 | 19.3 mL/min/kg | 283 mL/min/kg | 40.5 µg/mL (≈ 107 µM) | – | – | O=C(NCCCNC(=O)c1cc2ccccc2[nH]1)c1ccc2c(c1)OCCO2 |
| 0.373 | 95.8 mL/min/kg | 665 mL/min/kg | – | – | – | CC(=O)Nc1ccccc1OCCOc1ccc(Cl)cc1 |
| 65.4 | 30.8 mL/min/kg | 228 mL/min/kg | – | – | – | CNCc1cc(N(C)C)nc(C2CCCN2C(=O)c2ccccc2-c2ccccc2)n1 (configuration not stated) |
| – | ≤ 4.74 mL/min/kg | 92.7 mL/min/kg | – | – | – | CN1C(=O)COc2cc(NC(=O)C3CC=CC3)ccc21 |
| 0.829 | 191 mL/min/kg | 2760 mL/min/kg | – | – | – | CN(Cc1cccc(Cl)c1Cl)Cc1cc(=O)n(C)c(=O)n1C |
| 18.4 | ≤ 4.74 mL/min/kg | 1140 mL/min/kg | – | – | – | C[C@@H](c1ccccc1)N(C)C(=O)NCCN(C)CCO |
| 0.317 | 256 mL/min/kg | 747 mL/min/kg | 44.9 µg/mL (≈ 132 µM) | – | – | FC(F)(F)c1nccc(NCCSc2nc3ccccc3o2)n1 |
| 1.98 | ≤ 4.74 mL/min/kg | 61.5 mL/min/kg | 44.8 µg/mL (≈ 132 µM) | 0.0156 | 0.12 | Cc1nnc(-c2ccc3occ(-c4ccc(S(C)=O)cc4)c3c2)o1 (configuration not stated) |
| 2.28 | 7.52 mL/min/kg | 214 mL/min/kg | 33.6 µg/mL (≈ 119 µM) | – | – | Cc1ccc(Cn2nccc2NC(=O)c2ccncc2)o1 |
| – | 32.1 mL/min/kg | 454 mL/min/kg | 71.7 µg/mL (≈ 166 µM) | – | – | CC(c1ccccc1)N1CC(C(=O)N2CCC(n3c(=O)[nH]c4ccccc43)CC2)CC1=O (configuration not stated) |
| 0.658 | 15.1 mL/min/kg | 2320 mL/min/kg | – | – | – | CCN(C)S(=O)(=O)N(C)Cc1cnc2ccccc2c1 |
| 27.1 | ≤ 4.74 mL/min/kg | 205 mL/min/kg | – | – | – | CC(C)C(=O)N1CCn2nc(CNC3CCc4ccccc4CC3)cc2C1 |
| 1.47 | 264 mL/min/kg | 1960 mL/min/kg | 47 µg/mL (≈ 123 µM) | – | – | COc1cccc(-c2ccc(C(=O)N(C)Cc3c(C)nn(C(C)C)c3C)o2)c1 |
| – | – | – | 65.5 µg/mL (≈ 177 µM) | – | – | O=C(NCCc1c[nH]c2cccc(C3(O)CCOCC3)c12)c1cccs1 |
